# Measured values from patent US8859587B2, “(2E)-3-phenyl-N-[2,2,2-Trifluoro-1-[[8-quinolineamino)thiomethyl]amino]ethyl]-2-acrylamide and pharmaceutical uses thereof” (Chinese PLA General Hospital, priority 2010, dated 2014).
# What was measured:
# Assay type in all cases: cell-based, Wistar rats
# [1] = test system: cardiac muscle cells under anoxia; assay: Cardiomyocyte apoptosis induced by anoxia, high connotation screening (HCS Reader); conditions: for Filament strength (actin filament) / Nucleus area / Nucleus strength / Short/long axis ratio of filament / cell count increase in comparison with the anoxia group / light flux / Cell count / Transmembrane potential (mitochondrial): anoxia 16 h; for Cell count / Transmembrane potential (mitochondrial): relative to control group = 1
# Method: neonate Wistar rats, rat age: within 24 h, male and female
# cardiac muscle cells were separated and cultured by referring to the method of differential adhesion, Wistar neonate […] newborn within 24 h were used, sterilized at skin of ventrum with iodine tincture and ethanol, subjected to thoracotomy using scissors at subxiphoid median line with a deviation to left, heart was taken out after slant thoracotomy and placed in PBS precooled with ice; the heart was softly blown and beaten with 0.01M PBS to remove blood cells and other tissues, then cut into pieces with 0.5 mm^3 size, washed with 0.01M PBS repeatedly for 2-3 times; the pieces were placed in conical flask, added with 4 ml of 0.125% pancretin, 1 ml of 0.1% collagenase II (final concentrations separately being 0.1% and 0.02%), shaken in 37° C. water bath for 10 min, the supernatant was discarded; then 4 ml of 0.125% pancretin and 1 ml of 0.1% collagenase II again, shaken in 37° C. water bath for digestion for 10 min, the supernatant was sucked and transferred to a centrifuge tube, and the supernatant was added with DMEM containing 10% FBS to terminate digestion; the step of shaking and digestion in water bath was repeated for 3-4 times, until the tissue pieces were completely digested; the collected cell suspension was centrifuged under 1000 rpm for 10 min, the supernatant was removed, then a culture medium was added for resuspension; the resuspended cells were inoculated in a cell culture flask, placed in CO2 incubator at 37° C. for incubation for 1.5 h, then the culture medium was sucked out, countered under microscope, then DMEM culture medium containing 10% FBS was used to adjust cell density, inoculated in an amount of 1×10^4 to a 96-well plate, placed in 5% CO2 incubator at 37° C. for 24 h, then half medium was replaced, a culture medium containing 0.1% Brdu was supplementally added; then the medium was replaced once per 48 h, and primary cardiac muscle cells were obtained after 4 days of cultivation.
# 1. The separated cardiac muscle cells were inoculated to a 96-wells plate, 10^4 cells per well, and the volume of each well was 100 μl (marginal wells were filled with sterile PBS). After being cultivated in 5% CO2 and 37° C. incubator for 4 d, Formula I was separated added at different concentrations (5 μM, 10 μM, 20 μM) and treated for 30 min, then placed in a sealed 37° C. anoxia incubator (O2/CO2, 5:95) and continuously incubated for 16 h, and at the same time, anoxia control wells and the normal control wells were set and cultivated in 5% CO2, 37° C. incubator for 16 h.
# 2. It was 30 min before the anoxia incubation was finished, each well was supplemented with 50 μl of culture medium and 50 μl of Mitotracker/Hoechst solution, and the cells were continuously incubated at 37° C. for 30 min.
# 3. 100 μl of the fixing solution was preheated to 37° C. and separately added to each culture well, without sucking out culture medium, and incubation was performed under ventilation at room temperature for 10 min.
# 4. The solution of each well was sucked out (the plate could be struck), washed with 1× Wash Buffer (100 uL/well) once. Carefulness was kept during operation and washing procedure, and slow sucking and adding liquid to maintain cell adhesion and integrity.
# 5. Wash Buffer was sucked out, 1× penetrating buffer solution (100 uL/well) was added, incubated at room temperature for 15 min.
# 6. The penetrating buffer solution in each well was sucked out, washed once with 100 μL/well of 1× Wash Buffer.
# 7. The Wash Buffer in each well was sucked out (the plate could be struck), each well was added with 50 μl of Alexa Fluor 488 Phalloidin Solution, incubated at room temperature in dark for 30 min.
# 8. The Alexa Fluor 488 Phalloidin solution in each well was sucked out, washed with 1× Wash Buffer (100 μl/well) twice, and added with 1× Wash Buffer (100 μl/well).
# 9. The edge of plate was covered with a sealing membrane (for prevention of drying), and assayed with HCS Reader. […]
# [2] = test system: caspase-12 and cleaved caspase-12; assay: Western blot of caspase-12 and cleaved caspase-12 in TM-induced cardiac muscle cells
# Method: (12000 rpm×10 min), collected supernatant. Nitrocellulose membrane was dipped in a transferring buffer for 15-20 min in advance. Sampled in 50 μg protein/lane, subjected to 10% polyacrylamide gel SDS-PAGE electrophoretic separation, the gel was then tiled in electrotransferring clamp, in which sponge, filter paper, gel, nitrocellulose membrane, filter paper and sponge were mounted from negative electrode to positive electrode in order. Constant current 350 mA, electrotransferred for 45 min. Electrotransferring membrane to […], the nitrocellulose membrane was taken out, the membrane was washed with TBST for 2 min, sealed with 5% defatted milk powder at room temperature for 1 h, added with first antibody (1:1000) and incubated at 4° C. overnight, the membrane was washed with TBST, 3 times×5 min, then […] second antibody was added, incubated at room temperature for 1 h, washed with TBST, 3 times×5 min, soaked separately with TSM1 and TSM2 for 5 min and 10 min, developed with chromogenic substrates 6.6 μl NBT and 3.3 μl BCIP dissolved in 1 ml of TSM2, after bonds become clear, the reaction was terminated by washing with water. After the end of development, the records were stored by scanning or taking photos.
# [3] = test system: primary cardiac muscle cells induced by TM; assay: Cardiomyocyte apoptosis induced by TM, AnnexinV-FITC flow cytometer; conditions: for Cardiomyocyte apoptosis rate detected by flow cytometer (%): 24 h
# Method: The primary cardiac muscle cells obtained by the method according to the culture method of primary cardiac muscle cells of Example 1 were added with tunicamycin (TM) on the 4th day to perform interference test. The cells were randomly divided into 5 groups: solvent control group (DMSO), TM interference group (5 μg/ml), Compound of Formula I+TM interference group (10 μM+5 μg/ml), Compound of Formula I interference group ([…]+5 μg/ml), Compound of Formula I interference group ([…]+5 μg/ml).
# it is 24 h after drug interference, the cells were treated by the method of AnnexinV-FITC apoptosis kit, and the apoptosis was detected within 1 h by using a flow cytometer (BD ACScalibur, US Becton-Dickinson Company). For each sample, 14000 cells were collected and analyzed, the test was repeated for 3 times, and the average value was used as a result.
smiles,measurement,setting,value
"O=C(/C=C/c1ccccc1)NC(NC(=S)Nc1cccc2cccnc12)C(Cl)(Cl)Cl (stereo not shown) [Compound of Formula I, (2E)-3-phenyl-N-[2,2,2-trichloro-1-[[(8-quinolylamino)thiomethyl]amino]ethyl]-2-acrylamide]",Filament strength (actin filament),[1]; 5 μM,498.03 ± 76.67
same,Nucleus area,[1]; 5 μM,109.90 ± 3.97
same,Nucleus strength,[1]; 5 μM,124.90 ± 2.25
same,Short/long axis ratio of filament,[1]; 5 μM,0.75 ± 0.02
same,cell count increase in comparison with the anoxia group,[1]; 5 μM,17.06%
same,light flux,[1]; 5 μM,1201.92 ± 29.95
same,Cell count,[1]; 5 μM,88.57% ± 7.64%
same,Transmembrane potential (mitochondrial),[1]; 5 μM,96.69% ± 5.06%
same,Filament strength (actin filament),[1]; 10 μM,503.64 ± 49.23
same,Nucleus area,[1]; 10 μM,107.43 ± 7.77
same,Nucleus strength,[1]; 10 μM,123.21 ± 2.71
same,Short/long axis ratio of filament,[1]; 10 μM,0.74 ± 0.01
same,cell count increase in comparison with the anoxia group,[1]; 10 μM,26.52%
same,light flux,[1]; 10 μM,1166.12 ± 91.06
same,Cell count,[1]; 10 μM,98.03% ± 16.24
same,Transmembrane potential (mitochondrial),[1]; 10 μM,97.19% ± 2.82^
same,Filament strength (actin filament),[1]; 20 μM,471.83 ± 69.38
same,Nucleus area,[1]; 20 μM,111.90 ± 10.76
same,Nucleus strength,[1]; 20 μM,121.40 ± 2.24
same,Short/long axis ratio of filament,[1]; 20 μM,0.74 ± 0.02
same,cell count increase in comparison with the anoxia group,[1]; 20 μM,30.22%
same,light flux,[1]; 20 μM,1214.09 ± 107.59
same,Cell count,[1]; 20 μM,101.73% ± 22.42%
same,Transmembrane potential (mitochondrial),[1]; 20 μM,99.40% ± 2.80%
same,"effect on indexes of cardiac muscle cells under anoxia (nucleus area, nucleus strength, light flux, actin filament, transmembrane potential, cell count)",[1]; highly anoxia condition,significantly improve the above indexes
same,expression of Cleaved caspase-12,"[2]; 10, 20, 40 μM + TM 5 μg/ml",gradually decreases with the increase of the concentration
same,Caspase-12 expression,[2]; different concentrations for 24 h,no significant change
same,Cardiomyocyte apoptosis rate detected by flow cytometer (%),[3]; 10 μM + TM 5 μg/ml,22.98 ± 1.35^ab %
same,Cardiomyocyte apoptosis rate detected by flow cytometer (%),[3]; 20 μM + TM 5 μg/ml,20.13 ± 0.87^ab %
same,Cardiomyocyte apoptosis rate detected by flow cytometer (%),[3]; 40 μM + TM 5 μg/ml,18.64 ± 0.83^ab %
same,apoptosis rates in comparison with the TM group (flow cytometer),"[3]; 10, 20, 40 μM, P<0.05",significantly decreased apoptosis rates
